From the supplement of paper PMC10307832

Tests used:
Experiment in all cases: relative viability (nuclei count vs DMSO), 5 days (fraction); higher = more cells survive
201T = test system: 201T
Summary of the method: (§1)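 Values are medians from duplicate plates. Each reflects relative viability, defined as the nuclei count of treated wells over that of vehicle wells. Lung cancer cell lines in 1536-well plates were pin-tool dosed one day after seeding with one drug alone or with a fixed anchor-drug dose plus five library-drug doses (not always all listed) in √10 steps, then fixed, stained and imaged at 4× after 5 days.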

A-427 = test system: A-427
Summary of the method: as §1

COR-L23 = test system: COR-L23
Summary of the method: as §1

H3255 = test system: H3255
Summary of the method: as §1

HCC-44 = test system: HCC-44
Summary of the method: as §1

LC-2-ad = test system: LC-2-ad
Summary of the method: as §1

LCLC-103H = test system: LCLC-103H
Summary of the method: as §1

LCLC-97TM1 = test system: LCLC-97TM1
Summary of the method: as §1

LK-2 = test system: LK-2
Summary of the method: as §1

LU99A = test system: LU99A
Summary of the method: as §1

NCI-H1563 = test system: NCI-H1563
Summary of the method: as §1

NCI-H1650 = conditions: first compound 0.01 µM
Summary of the method: as §1

## O=c1cc(N2CCOCC2)oc2c(-c3cccc4c3sc3ccccc34)cccc12 + COc1cccc2cc(-c3nc([C@H]4CC[C@H](C(=O)O)CC4)n4ncnc(N)c34)[nH]c12 [OSI-027] (partner 0.5 µM)
201T; first compound 0.01 µM
  relative viability: 0.811
201T; first compound 0.03162 µM
  relative viability: 0.832
201T; first compound 0.1 µM
  relative viability: 0.715
201T; first compound 0.3162 µM
  relative viability: 0.721
201T; first compound 1 µM
  relative viability: 0.645
A-427; first compound 0.01 µM
  relative viability: 0.514
A-427; first compound 0.03162 µM
  relative viability: 0.469
A-427; first compound 0.1 µM
  relative viability: 0.337
A-427; first compound 0.3162 µM
  relative viability: 0.484
A-427; first compound 1 µM
  relative viability: 0.587
COR-L23; first compound 0.01 µM
  relative viability: 0.748
COR-L23; first compound 0.03162 µM
  relative viability: 0.774
COR-L23; first compound 0.1 µM
  relative viability: 0.748
COR-L23; first compound 0.3162 µM
  relative viability: 0.796
COR-L23; first compound 1 µM
  relative viability: 0.834
H3255; first compound 0.01 µM
  relative viability: 0.659
H3255; first compound 0.03162 µM
  relative viability: 0.503
H3255; first compound 0.1 µM
  relative viability: 0.584
H3255; first compound 0.3162 µM
  relative viability: 0.668
H3255; first compound 1 µM
  relative viability: 0.536
HCC-44; first compound 0.01 µM
  relative viability: 0.524
HCC-44; first compound 0.03162 µM
  relative viability: 0.504
HCC-44; first compound 0.1 µM
  relative viability: 0.588
HCC-44; first compound 0.3162 µM
  relative viability: 0.694
HCC-44; first compound 1 µM
  relative viability: 0.463
LC-2-ad; first compound 0.01 µM
  relative viability: 0.903
LC-2-ad; first compound 0.03162 µM
  relative viability: 0.993
LC-2-ad; first compound 0.1 µM
  relative viability: 0.877
LC-2-ad; first compound 0.3162 µM
  relative viability: 0.915
LC-2-ad; first compound 1 µM
  relative viability: 0.785
LCLC-103H; first compound 0.01 µM
  relative viability: 0.446
LCLC-103H; first compound 0.03162 µM
  relative viability: 0.462
LCLC-103H; first compound 0.1 µM
  relative viability: 0.513
LCLC-103H; first compound 0.3162 µM
  relative viability: 0.474
LCLC-103H; first compound 1 µM
  relative viability: 0.419
LCLC-97TM1; first compound 0.01 µM
  relative viability: 0.583
LCLC-97TM1; first compound 0.03162 µM
  relative viability: 0.684
LCLC-97TM1; first compound 0.1 µM
  relative viability: 0.491
LCLC-97TM1; first compound 0.3162 µM
  relative viability: 0.612
LCLC-97TM1; first compound 1 µM
  relative viability: 0.555
LK-2; first compound 0.01 µM
  relative viability: 0.24
LK-2; first compound 0.03162 µM
  relative viability: 0.361
LK-2; first compound 0.1 µM
  relative viability: 0.181
LK-2; first compound 0.3162 µM
  relative viability: 0.219
LK-2; first compound 1 µM
  relative viability: 0.212
LU99A; first compound 0.01 µM
  relative viability: 0.277
LU99A; first compound 0.03162 µM
  relative viability: 0.337
LU99A; first compound 0.1 µM
  relative viability: 0.323
LU99A; first compound 0.3162 µM
  relative viability: 0.311
LU99A; first compound 1 µM
  relative viability: 0.347
NCI-H1563; first compound 0.01 µM
  relative viability: 0.695
NCI-H1563; first compound 0.03162 µM
  relative viability: 0.741
NCI-H1563; first compound 0.1 µM
  relative viability: 0.773
NCI-H1563; first compound 0.3162 µM
  relative viability: 0.794
NCI-H1563; first compound 1 µM
  relative viability: 0.697
NCI-H1650
  relative viability: 0.519
